Publication PMC7294809, “Discovery of an Allosteric Binding Site in Kinetoplastid Methionyl-tRNA Synthetase” (ACS Infectious Diseases, 2020)
≈ marks a conversion by molar mass, not a printed value. Like-named read-outs stand apart in the source and are kept apart here.

Key:
[1] = Aqueous solubility, filtration-based method; format: physicochemical; conditions: phosphate-buffered saline pH 7.4, 24 h, 25 °C; for solubility at 24 h: aqueous buffer, kinetic from dmso stock
Experimental: Solubility was assessed using a filtration-based method. Test compounds were dissolved in DMSO to give 10 mM solutions. Five microliters of the 10 mM solution was added to 195 μL of phosphate-buffered saline at pH 7.4 and mixed for 24 h (rotary mixing, 900 rpm, 25 °C) excluding light. After mixing, the samples were filtered to remove any undissolved material using a Millipore Multiscreen HTS filter. The filtrate was analyzed for dissolved drug compounds using UHPLC.

CHI LogD measurement = format: physicochemical
Experimental: CHI LogD measurements were performed as described elsewhere.[29] cLogP measurements were calculated using StarDrop (Optibrium).

LdMetRS = LdMetRS (Leishmania donovani, UniProt A0A3Q8IBX2); assay: LdMetRS BIOMOL Green biochemical assay, 10-point dose response; conditions: 50 μM methionine, 100 μM ATP; for IC50: read-out: LdMetRS pIC50 (converted)
TcMetRS = TcMetRS (Trypanosoma cruzi, UniProt Q4D6H2); assay: TcMetRS BIOMOL Green biochemical assay, 10-point dose response; conditions: 50 μM methionine, 100 μM ATP; for IC50: 80 nM TcMetRS, read-out: TcMetRS pIC50 (converted); for Emax: read-out: TcMetRS Maximum % Inhibition
[2] = chromatographic hydrophobicity index
[3] = 50 nM LdMetRS, pIC50 = −log IC50 (M)
[4] = plateau of dose-response curve, read-out: LdMetRS Maximum % Inhibition Plateau
[5] = Table 2, read-out: LdMetRS Maximum % Inhibition
[6] = chromatography (chromatographic hydrophobicity index)

Sequence of LdMetRS (A0A3Q8IBX2 entry or part of it): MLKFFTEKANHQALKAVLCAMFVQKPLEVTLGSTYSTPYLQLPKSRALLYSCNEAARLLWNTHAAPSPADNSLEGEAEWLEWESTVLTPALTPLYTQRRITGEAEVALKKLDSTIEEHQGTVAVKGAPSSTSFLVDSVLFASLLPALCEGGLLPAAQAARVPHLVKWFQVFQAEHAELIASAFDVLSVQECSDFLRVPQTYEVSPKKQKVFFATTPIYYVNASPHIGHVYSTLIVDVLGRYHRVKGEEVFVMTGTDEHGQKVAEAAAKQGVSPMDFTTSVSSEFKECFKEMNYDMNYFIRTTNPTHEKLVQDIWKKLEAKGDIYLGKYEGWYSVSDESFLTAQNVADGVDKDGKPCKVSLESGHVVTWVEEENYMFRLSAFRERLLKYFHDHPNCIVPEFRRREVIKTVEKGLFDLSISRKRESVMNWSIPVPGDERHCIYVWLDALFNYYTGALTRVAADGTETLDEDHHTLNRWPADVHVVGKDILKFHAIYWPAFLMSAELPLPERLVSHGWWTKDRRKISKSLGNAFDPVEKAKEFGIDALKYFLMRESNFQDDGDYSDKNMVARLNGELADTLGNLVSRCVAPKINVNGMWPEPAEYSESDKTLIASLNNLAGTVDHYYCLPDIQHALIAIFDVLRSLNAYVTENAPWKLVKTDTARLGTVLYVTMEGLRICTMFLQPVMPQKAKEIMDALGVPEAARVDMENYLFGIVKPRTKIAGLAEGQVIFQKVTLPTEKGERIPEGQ
Sequence of TcMetRS (Q4D6H2 entry or part of it): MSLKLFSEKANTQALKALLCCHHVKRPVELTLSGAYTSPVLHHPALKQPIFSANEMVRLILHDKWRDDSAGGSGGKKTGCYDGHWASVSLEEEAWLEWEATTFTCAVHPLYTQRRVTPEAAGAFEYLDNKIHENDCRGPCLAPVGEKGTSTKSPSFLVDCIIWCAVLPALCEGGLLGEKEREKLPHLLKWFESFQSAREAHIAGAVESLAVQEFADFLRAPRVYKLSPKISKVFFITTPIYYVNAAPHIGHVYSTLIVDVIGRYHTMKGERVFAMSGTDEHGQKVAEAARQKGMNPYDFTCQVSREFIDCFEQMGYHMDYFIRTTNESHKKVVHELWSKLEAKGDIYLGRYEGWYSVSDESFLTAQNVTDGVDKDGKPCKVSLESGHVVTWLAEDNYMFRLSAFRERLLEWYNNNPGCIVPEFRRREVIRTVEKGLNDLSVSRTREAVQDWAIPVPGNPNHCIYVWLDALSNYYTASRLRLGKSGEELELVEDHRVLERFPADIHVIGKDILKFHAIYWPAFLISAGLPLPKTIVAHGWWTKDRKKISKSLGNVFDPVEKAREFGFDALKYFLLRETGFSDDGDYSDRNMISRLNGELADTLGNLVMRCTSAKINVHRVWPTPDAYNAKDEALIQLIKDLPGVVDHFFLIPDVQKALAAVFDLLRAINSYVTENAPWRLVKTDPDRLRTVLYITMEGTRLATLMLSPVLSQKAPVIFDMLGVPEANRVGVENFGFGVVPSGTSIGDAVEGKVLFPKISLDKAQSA

| Structure (SMILES) | solubility at 24 h [1] [µM] | chromatographic logD (CHI LogD measurement; [2]) | IC50 (LdMetRS; [3]) [M] | Emax (LdMetRS; [4]) [%] | IC50 (TcMetRS) [µM] | Emax (LdMetRS; [5]) [%] | Emax (TcMetRS) [%] | chromatographic logD (CHI LogD measurement; [6]) | Aqueous Solubility [1] | LdMetRS Maximum % Inhibition Plateau (LdMetRS; plateau of dose-response curve) | LdMetRS pIC50 (LdMetRS; [3]) |
| --- | --- | --- | --- | --- | --- | --- | --- | --- | --- | --- | --- |
| COCCNc1nc(Nc2ccc(F)c(F)c2)nc2c1cnn2C [Compound 21] | 23.3 (≈ 7.79 µg/mL) | 2.49 | 6.31e-06 | 99.7 | > 100 | – | – | – | – | – | – |
| CNC(=O)CNc1nc(Nc2ccc(F)c(F)c2)nc2c1cnn2C [Compound 26] | 201 (≈ 69.8 µg/mL) | 1.38 | 2e-05 | 68.9 | > 100 | – | – | – | – | – | – |
| CC(C)Cc1cc(Nc2nc(NCCO)c3cnn(C)c3n2)ccc1F [Compound 16] | – | – | > 0.0001 | – | > 100 | 17.1 | 15.4 | – | – | – | – |
| Cn1ncc2c(NCCO)nc(Nc3cccc(F)c3)nc21 [Compound 4] | – | – | 3.16e-05 | 83.7 | – | – | – | 1.48 | – | – | – |
| COC(=O)C(Cc1c[nH]cn1)Nc1nc(Nc2ccc(F)c(F)c2)nc2c1cnn2C (stereo not drawn) [Compound 31] | 128 (≈ 54.8 µg/mL) | 3.63 | 2e-07 | 100 | 2 | – | – | – | good solubility | full inhibition | – |
| Cn1ncc2c(NCCO)nc(Nc3cccc(Cl)c3)nc21 [Compound 3] | – | – | 1.26e-05 | 94.7 | – | – | – | 1.82 | – | – | – |
| Cn1ncc2c(Nc3ccc(F)c(F)c3)nc(Nc3ccc(F)c(F)c3)nc21 [Compound 17] | 0.38 (≈ 0.148 µg/mL) | 3.82 | > 0.0001 | – | > 100 | – | – | – | – | – | – |
| COc1ccc(Nc2nc(NCCO)c3cnn(C)c3n2)cc1Cl [Compound 7] | – | – | > 0.0001 | – | – | – | – | – | – | – | – |
| Cn1ncc2c(NCCO)nc(N3CCCCC3)nc21 [Compound 10] | – | 1.49 | > 0.0001 | – | > 100 | 10.8 | 13.6 | – | – | – | – |
| Cn1ncc2c(N3CCCCC3)nc(Nc3ccc(F)c(F)c3)nc21 [Compound 24] | 0.46 (≈ 0.158 µg/mL) | 3.93 | > 0.0001 | – | > 100 | – | – | – | – | – | inactive |
| Cn1ncc2c(NCCO)nc(Nc3ccc(F)cc3)nc21 [Compound 2] | – | – | 2.51e-05 | 94.2 | – | – | – | 1.32 | – | – | – |
| Cn1ncc2c(NCCO)nc(NC3CCCCC3)nc21 [Compound 8] | – | 1.74 | > 0.0001 | – | > 100 | 11.1 | 16.3 | – | – | – | – |
| COC(=O)C1(Nc2nc(Nc3ccc(F)c(F)c3)nc3c2cnn3C)CC1 [Compound 32] | – | 4.91 | 7.94e-07 | 94.7 | > 100 | – | – | – | – | – | – |
| Cn1ncc2c(NCCO)nc(NC3CCOCC3)nc21 [Compound 9] | – | 0.04 | > 0.0001 | – | > 100 | 17.3 | 15 | – | – | – | – |
| CC(C)Oc1cc(Nc2nc(NCCO)c3cnn(C)c3n2)ccc1F [Compound 15] | – | – | > 0.0001 | – | > 100 | 6.9 | 5.4 | – | – | – | – |
